Laboratory results taken from US20090239951A1, “Crystalline Material” (priority 2006, published 2009).

What was measured:
Type in all cases: physicochemical
[1] = Heat stability of crystalline form; conditions: solid crystalline form
[2] = Hygroscopicity versus relative humidity
[3] = Conversion of crystal form on being dissolved or slurried in solvents
[4] = Stability of the crystal form (general statement)
[5] = Stability of Form N-5 slurries in ethanol:water mixtures; conditions: ethanol:water mixtures (1:1, 1:1.3 and 1:2) at 5, 25 and 30° C. after 1 h, 48 h and 5 days; confirmed by DSC and FTIR
Experimental: The stability of N-5 slurries in ethanol:water mixtures (1:1, 1:1.3 and 1:2) at 5, 25 and 30° C. was determined after 1 h, 48 h and 5 days. […] DSC and FTIR confirmed this.

CC(C)c1cc(Oc2c(Br)cc(NC(=O)CC(=O)O)cc2Br)ccc1O [Form N-6, 3-[[3,5-dibromo-4-[4-hydroxy-3-(1-methylethyl)-phenoxy]-phenyl]-amino]-3-oxopropanoic acid]
heat stable up to [1]: at least 170 °C
non-hygroscopic up to a relative humidity of [2]: 95%

CC(C)c1cc(Oc2c(Br)cc(NC(=O)CC(=O)O)cc2Br)ccc1O [Form N-1, 3-[[3,5-dibromo-4-[4-hydroxy-3-(1-methylethyl)-phenoxy]-phenyl]-amino]-3-oxopropanoic acid, reference compound]
form conversion on being dissolved or slurried ([3]; common solvents: alcohols such as methanol, ethanol or isopropanol, nitromethane or nitroethane, alcohol/water mixtures): converts into Form N-5 and/or Form N-6
stability of crystal form [4]: unstable
heat stable up to [1]: around 125 °C
becoming hygroscopic at a relative humidity of [2]: 50%

CC(C)c1cc(Oc2c(Br)cc(NC(=O)CC(=O)O)cc2Br)ccc1O [Form N-5, 3-[[3,5-dibromo-4-[4-hydroxy-3-(1-methylethyl)-phenoxy]-phenyl]-amino]-3-oxopropanoic acid]
stability when slurried in the presence of an alcohol ([3]; slurried in the presence of an alcohol, after very long periods conversion into Form N-6 may occur): stable for a number of days
stability of slurries (transformation to other form) [5]: did not transform to any other form
heat stable up to [1]: at least 170 °C
non-hygroscopic up to a relative humidity of [2]: 95%
